# Where a name gives a salt, the structure may show the parent alone.
# Columns and labels:
# [1] = tested on: retinal transcriptome of Abca4−/−Rdh8−/− mice; assay: RNA-seq retinal transcriptome of pretreated, light-exposed Abca4−/−Rdh8−/− mice (differential expression, Pearson, GSEA); format: in vivo, mouse; details: for NES, CHEMOKINE SIGNALING gene set / NES, CYTOKINE- RECEPTOR INTERACTIO gene set / NES, P53 gene set / NES, TOLL-LIKE SIGNALING gene set / NES, APOPTOSIS gene set: GSEA, vehicle-treated light-exposed retinas against drug-treated; for NES, APOPTOSIS gene set: P in brackets not reported here; for number of light-up-regulated gene sets significantly down-regulated (GSEA): of 44 gene sets up-regulated by light, mono doses BRM 1, MTP 10, TAM 2.5, DOX 10 mg/kg bw
# Abca4−/−Rdh8−/− mice [2] = assay: Bright light-induced retinal degeneration in Abca4−/−Rdh8−/− mice, SLO autofluorescence imaging; format: in vivo, mouse; details: pretreatment before light 10,000 lux 30 min; SLO 8-9 days after light exposure
# Procedure: SLO (Heidelberg Engineering, Heidelberg, Germany) was carried out for whole fundus imaging of mouse retinas. Mice were anesthetized by intraperitoneal injection of anesthetic cocktail indicated above, which was followed by pupil dilation using 1% tropicamide prior to SLO imaging under autofluorescence mode.
# SLO (Heidelberg Engineering) was carried out for in vivo whole fundus imaging of mouse retinas. […] Numbers of autofluorescent spots were counted and subjected to statistical analyses as described below.
# SLO (Heidelberg Engineering) was carried out for whole fundus imaging of mouse retinas in vivo. Mice were anesthetized, and their pupils were dilated as described above. SLO images were then acquired in the autofluorescence mode.
# Abca4−/−Rdh8−/− mice [3] = assay: Bright light-induced retinal degeneration in Abca4−/−Rdh8−/− mice, retinal histology and immunohistochemistry; format: in vivo, mouse; details: pretreatment before light 10,000 lux 30 min; 7-10 days after light exposure
# Procedure: Retinal histology and immunohistochemistry (IHC) was performed as previously described. Briefly, eye cups free of cornea, lens and vitreous body were fixed in 2% glutaraldehyde/4% paraformaldehyde and processed for Epon embedding. Sections 1 am thick were cut and stained with toluidine blue for histological examination under a light microscope. IHC analysis was performed on 12 am thick cryosections prepared from 4% paraformaldehyde-fixed eye cups. Collected cryosections were subjected to examination for rhodopsin, PNA and DAPI expression.
# Retinal immunohistochemistry (IHC) was carried out as previously described. Briefly, eyes were enucleated and eye cups were made to eliminate cornea, lens and vitreous body and fixed in 4% paraformaldehyde and processed for cryosectioning. 12 am thick cryosections were collected cryosections and subjected to examination for rhodopsin, peanut agglutinin lectin (PNA) and DAPI expression.
# Retinal immunohistochemistry (IHC) was performed as previously described. Briefly, eyes were enucleated and, after removal of the cornea, lens and vitreous body, eye cups were fixed in 4% paraformaldehyde and processed for cryosectioning. Twelve μm thick cryosections were cut, collected and examined for rhodopsin expression, peanut agglutinin lectin (PNA) for cone sheath and nuclear DAPI staining. […]
# [4] = target: T1, α1A-adrenergic receptor (ADRA1A) (Homo sapiens, UniProt P35348); assay: BRET assay for G protein activation in live cells, ADRA1A-Gq; format: cell-based; details: for antagonistic activity on ADRA1A (inhibition of BRET signal): preincubation with ligand, then 1 μM noradrenaline
# T1 construct: host or cells: HEK293T/17
# T1 sequence (P35348 1-466): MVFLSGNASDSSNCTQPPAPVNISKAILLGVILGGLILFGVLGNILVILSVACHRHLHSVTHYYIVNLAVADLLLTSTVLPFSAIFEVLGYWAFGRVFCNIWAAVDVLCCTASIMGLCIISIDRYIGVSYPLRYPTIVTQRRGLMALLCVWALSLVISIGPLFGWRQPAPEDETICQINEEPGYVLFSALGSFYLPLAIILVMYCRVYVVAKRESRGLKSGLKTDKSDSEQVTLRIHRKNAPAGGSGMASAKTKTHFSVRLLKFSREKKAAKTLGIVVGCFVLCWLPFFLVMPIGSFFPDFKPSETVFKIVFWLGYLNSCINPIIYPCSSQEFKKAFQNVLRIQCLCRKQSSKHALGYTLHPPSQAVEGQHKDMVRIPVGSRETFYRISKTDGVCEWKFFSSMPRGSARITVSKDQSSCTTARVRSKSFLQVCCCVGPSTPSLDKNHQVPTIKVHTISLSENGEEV
# Excerpt: FIGS. 35(A-C) illustrate characterizing the activity of BRM, MTP, DOX, and TAM on dopamine and adrenaline receptors (A) Schematic representation of the BRET assay used to evaluate actions of drugs on selected GPCRs. […] The free Venus-Gβγ then interacts with the Gβγ-effector mimetic masGRK3ct-Nluc to produce the BRET signal. GDP, guanosine diphosphate; GRK, G protein-coupled receptor kinase; Nluc, nanoluciferase. (B) Left: Representative BRET signal traces recorded upon activation of D4R with indicated drugs in cells expressing Gαo and Venus-Gβγ, illustrating the agonism assay. Right: Representative traces of D2R responses to 1 μM dopamine in the absence (control) or presence of indicated drugs, illustrating antagonism assay. Note that, in the antagonism assay shown, the black trace overlaps with the red trace and therefore is not visible. (C) Top: Quantification of agonistic activity of ligands on D2R, D4R, D1R, and ADRA1A. D2R-GO, D4R-GO, D1R-Gs, and ADRA1A-Gq signaling were reconstituted in HEK293T/17 cells by transient transfection separately. Maximum amplitudes induced by dopamine (DA; 100 μM), noradrenaline (NA; 100 μM), BRM (25 μM), MTP (100 μM), DOX (50 μM), and TAM (100 μM) were plotted as bar graphs. […] The activity is plotted as percent inhibition. Data are means±SD. Results are representative of two independent experiments each performed with 12 replicates.
# Dopamine D1, dopamine D4, and α1A-adrenergic receptors were purchased from cDNA Resource Center (Bloomsburg University, Bloomsburg, Pa.). Plasmid encoding the Flag-tagged, long isoform of the D2 dopamine receptor was a gift from A. Kovoor (University of Rhode Island). pCMV5 plasmids encoding GαoA were gifts from H. Itoh (Nara Institute of Science and Technology, Japan). Plasmids encoding Venus 156-239-Gβ1 and Venus 1-155-Gγ2 were gifts from N. Lambert (Georgia Regents University). Plasmids encoding RGS9-2, Gβ5S, R7BP, and masGRK3ct-Nluc were previously described.
# BRET experiments were performed as previously reported with slight modifications. […] BRET measurements were performed using a microplate reader (POLARstar Omega, BMG Labtech) equipped with two emission photomultiplier tubes. […] The BRET signal is determined by calculating the ratio of the light emitted by Gβ1γ2-Venus (535 nm) over the light emitted by masGRK3ct-Nluc (475 nm). The average baseline value recorded before agonist stimulation was subtracted from BRET signal values, and the resulting difference (ABRET ratio) was obtained.
# We used a real-time kinetic assay in which G protein activation by GPCRs is quantified by monitoring changes in the bioluminescence resonance energy transfer (BRET) signal between Venus-tagged Gβγ and its luciferase-tagged reporter in living cells (FIG. 35A). […]
SMILES,"NES, CHEMOKINE SIGNALING gene set [1]","NES, CYTOKINE- RECEPTOR INTERACTIO gene set [1]","NES, P53 gene set [1]","NES, TOLL-LIKE SIGNALING gene set [1]","NES, APOPTOSIS gene set [1]",number of light-up-regulated gene sets significantly down-regulated (GSEA) [1],retinal autofluorescence spots by SLO imaging (Abca4−/−Rdh8−/− mice [2]),"retinal histology / immunohistochemistry (rhodopsin, PNA, DAPI; ONL) (Abca4−/−Rdh8−/− mice [3])",antagonistic activity on ADRA1A (inhibition of BRET signal) [4],preservation of retinal gene expression pattern (in words) ([1]; retinas 1 day after light exposure),"agonistic activity on ADRA1A (BRET signal) ([4]; HEK293T/17 cells, BRM 25 μM, MTP 100 μM, DOX 50 μM, TAM 100 μM)"
COc1cc2nc(N3CCN(C(=O)C4COc5ccccc5O4)CC3)nc(N)c2cc1OC.CS(=O)(=O)O (centres unmarked) [Doxazosin],1.41,2.42,2.18,1.99,1.75,28 gene sets,significantly protected retinas from developing light-induced damage,substantially preserved photoreceptor morphology,full antagonist,–,–
"COCCc1ccc(OCC(O)CNC(C)C)cc1 (centres unmarked) [MTP, metoprolol tartrate]",1.44,2.30,2.04,2.05,1.61,36 gene sets,lacked these autofluorescent spots,preservation of the ONL and photoreceptor cells,no agonistic or antagonistic effects,conferred the most protection,no agonistic or antagonistic effects
CCOc1ccccc1OCCN[C@H](C)Cc1ccc(OC)c(S(N)(=O)=O)c1.Cl [Tamsulosin],1.39,2.29,1.98,1.83,1.60,32 gene sets,significantly protected retinas from developing light-induced damage,substantially preserved photoreceptor morphology,antagonistic activity,–,–
